The values that follow come from patent publication US6635771B2, “N-benzhydryl indole compounds” (Wyeth, priority 2001, dated 2003).

The test has as its target T1, cPLA2 (Homo sapiens, UniProt P47712).
T1 sequence (P47712 1-749): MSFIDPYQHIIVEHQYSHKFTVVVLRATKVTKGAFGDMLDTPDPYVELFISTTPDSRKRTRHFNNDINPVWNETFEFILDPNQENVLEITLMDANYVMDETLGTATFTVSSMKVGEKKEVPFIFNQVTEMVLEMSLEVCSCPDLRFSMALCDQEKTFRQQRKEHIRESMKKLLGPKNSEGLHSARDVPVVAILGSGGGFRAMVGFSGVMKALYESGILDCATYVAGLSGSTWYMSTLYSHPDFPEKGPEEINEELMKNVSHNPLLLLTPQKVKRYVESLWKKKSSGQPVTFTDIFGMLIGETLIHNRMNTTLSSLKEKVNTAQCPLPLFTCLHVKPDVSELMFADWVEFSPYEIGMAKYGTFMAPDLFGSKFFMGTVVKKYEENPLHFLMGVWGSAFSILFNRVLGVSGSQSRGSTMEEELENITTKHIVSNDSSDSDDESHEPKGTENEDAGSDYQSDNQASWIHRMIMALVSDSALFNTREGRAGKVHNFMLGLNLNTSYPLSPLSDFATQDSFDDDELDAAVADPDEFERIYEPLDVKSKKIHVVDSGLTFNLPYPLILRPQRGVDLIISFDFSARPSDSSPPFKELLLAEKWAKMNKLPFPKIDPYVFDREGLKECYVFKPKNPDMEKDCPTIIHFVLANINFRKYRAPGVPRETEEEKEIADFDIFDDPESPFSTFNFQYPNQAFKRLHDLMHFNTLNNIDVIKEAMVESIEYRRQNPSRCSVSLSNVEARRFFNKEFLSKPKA
As to the kind of experiment: Coumarine Assay. The settings on record: 60 μM 7-hydroxycoumarinyl 6-heptenoate substrate, 4 μg cPLA2, pH 7.5, fluorescence ex 360 nm / em 460 nm; read-out: Coumarin IC50. It counts as biochemical.

Turning to `CN(C)S(=O)(=O)NCCc1c(CCOc2ccc(C(=O)O)cc2)c2cc(Cl)ccc2n1C(c1ccccc1)c1ccccc1` [Example 17, 4-{2-[1-Benzhydryl-5-chloro-2-(2-{[(dimethylamino)sulfonyl]amino}ethyl)-1H-indol-3-yl]ethoxy}benzoic acid], the IC50 (in general, the point on the concentration scale where inhibition reaches its midpoint) was determined as 200 nM.

`O=C(O)c1ccc(OCCc2c(CCNS(=O)(=O)Cc3ccc(F)c(F)c3)n(C(c3ccccc3)c3ccccc3)c3ccc(Cl)cc23)cc1` [Example 18, 4-{2-[1-Benzhydryl-5-chloro-2-(2{[(3,4-difluorobenzyl)sulfonyl]amino}-ethyl)-1H-indol-3-yl]ethoxy}benzoic acid]: the IC50 was found to be 400 nM.

As to `O=C(O)c1ccc(OCCc2c(CCNS(=O)(=O)Cc3ccc4ccccc4c3)n(C(c3ccccc3)c3ccccc3)c3ccc(Cl)cc23)cc1` [Example 19, 4-{2-[1-benzhydryl-5-chloro-2-(2{[(2-naphthylmethyl)sulfonyl]amino}ethyl)-1H-indol-3-yl]ethoxy}benzoic acid], the IC50 was 310 nM.

Take `O=C(O)c1ccc(OCCc2c(CCNS(=O)(=O)Cc3cccc(C(=O)O)c3)n(C(c3ccccc3)c3ccccc3)c3ccc(Cl)cc23)cc1` [Example 20, 3-({[(2-{1-benzhydryl-3-[2-(4-carboxyphenoxy)ethyl]-5-chloro-1H-indol-2-yl}ethyl)amino]sulfonyl}methyl)benzoic acid]: the IC50 was 1100 nM.

Take `O=C(O)c1ccc(OCCc2c(CCNS(=O)(=O)C(F)(F)F)n(C(c3ccccc3)c3ccccc3)c3ccc(Cl)cc23)cc1` [Example 22, 4-{2-[1-benzhydryl-5-chloro-2-(2-{[(trifluoromethyl)sulfonyl]amino}ethyl)-1H-indol-3-yl]ethoxy}benzoic acid]: the IC50 worked out at 1800 nM.

As to `O=C(O)c1ccc(OCCc2c(CCNS(=O)(=O)C3CC3)n(C(c3ccccc3)c3ccccc3)c3ccc(Cl)cc23)cc1` [Example 23, 4-[2-(1-benzhydryl-5-chloro-2-{2-[(cyclopropylsulfonyl)amino]ethyl}-1H-indol-3-yl)ethoxy]benzoic acid], the IC50 is 1500 nM.

For the compound `O=C(O)c1ccc(OCCc2c(CCNS(=O)(=O)Cc3cc(C(F)(F)F)cc(C(F)(F)F)c3)n(C(c3ccccc3)c3ccccc3)c3ccc(Cl)cc23)cc1` [Example 24, 4-(2-{1-benzhydryl-2-[2-({[3,5-bis(trifluoromethyl)benzyl]sulfonyl}amino)ethyl]-5-chloro-1H-indol-3-yl}ethoxy)benzoic acid], the concentration for half-maximal inhibition (IC50) was determined as 340 nM.

In the case of `O=C(O)c1ccc(OCCc2c(CCNS(=O)(=O)c3ccccc3C(=O)O)n(C(c3ccccc3)c3ccccc3)c3ccc(Cl)cc23)cc1` [Example 25, 2-{[(2-{1-benzhydryl-3-[2-(4-carboxyphenoxy)ethyl]-5-chloro-1H-indol-2-yl}ethyl)amino]sulfonyl}benzoic acid], the IC50 came out at 3400 nM.

On to `O=C(O)c1ccc(OCCc2c(CCNS(=O)(=O)c3ccc4ccccc4c3)n(C(c3ccccc3)c3ccccc3)c3ccc(Cl)cc23)cc1` [Example 26, 4-[2-(1-benzhydryl-5-chloro-2-{2-[(2-naphthylsulfonyl)amino]ethyl}-1H-indol-3-yl)ethoxy]benzoic acid], for which the IC50 turned out to be 1100 nM.

As for `O=C(O)c1ccc(OCCc2c(CCNS(=O)(=O)c3cc(Cl)cc(Cl)c3)n(C(c3ccccc3)c3ccccc3)c3ccc(Cl)cc23)cc1` [Example 27, 4-{2-[1-benzhydryl-5-chloro-2-(2-{[(3,5-dichlorophenyl)sulfonyl]amino}ethyl)-1H-indol-3-yl]ethoxy}benzoic acid], the IC50 is 800 nM.

For `O=C(O)c1ccc(OCCc2c(CCNS(=O)(=O)c3ccc(Cl)c(Cl)c3)n(C(c3ccccc3)c3ccccc3)c3ccc(Cl)cc23)cc1` [Example 28, 4-{2-[1-benzhydryl-5-chloro-2-(2{[(3,4-dichlorophenyl)sulfonyl]amino}ethyl)-1H-indol-3-yl]ethoxy}benzoic acid], the IC50 came out at 950 nM.
